Results published in patent US12084523B2, “Ubiquitin high affinity cyclic peptides and methods of use thereof” (TECHNION RESEARCH & DEVELOPMENT FOUNDATION LIMITED, priority 2018, dated 2024).
Like-named read-outs stand apart in the source and are kept apart here. No end group written: not given here.

Tests used:
^K48Ub4 = biological target: T1, ^K48Ub4 (Homo sapiens, UniProt P0CG47); assay: SPR binding of cyclic peptides to K48-linked tetra-ubiquitin
T1 construct: solid phase peptide synthesis of Ub monomers (modified as required); made in house
Procedure: Surface Plasmon Resonance (SPR)
The interactions between cyclic peptides: U2i, U2ii, U4i, U4ix and Ub1, ^K48Ub2 and ^K48Ub4, were determined using BIACORE T100 instrument (GE healthcare) equipped with a biotin CAPture kit Series S chip. The buffer in all experiments contained 50 mM HEPES, pH 7.3, 150 mM NaCl, 0.05% Tween20, 2 mM DTT with 0.2% DMSO. Biotinylated Ub1, ^K48Ub2 and ^K48Ub4 were loaded to approximately equal molar amounts on the SPR chip, and various concentrations of cyclic peptides were flowed over at […] for 120 sec, before initiation of dissociation by flowing buffer over at […] for further 700 sec. Traces were fit to the simplest, two-state model for binding. Association was fit to a single exponential assuming pseudo-first order conditions, whereas the dissociation trace was fit to single exponential plus a drift term. Finally, due to the poor quality of the traces for U4ix binding ^K48Ub2, the amplitude of the association kinetic trace at different concentrations of peptide was fit to estimate the lower bound for KD.
Each peptide was flowed over Ub1, ^K48Ub2 and […] immobilized on SPR chips. There was no detectable binding to Ub1 for any of the peptides, as expected, as Ub1 binding was explicitly selected against during the RaPID protocol. […] However, Ub2i and Ub2ii also strongly bound ^K48Ub4, with a low apparent KD and an increased SPR response (FIG. 1E). This was consistent with a higher stoichiometry of binding to the tetramer, which could be explained by additional binding sites in ^K48Ub4. Indeed, the ^K48Ub2 structure can be superimposed twice on the ^K48Ub4 crystal structure (FIG. 10). […] However, similar to Ub2i and Ub2ii, Ub4i also bound ^K48Ub2. This was perhaps unsurprising, given the high sequence identity between Ub4i and Ub2i.

USP2 [1] = assay: In vitro deubiquitination assay, USP2 with K48-linked di-Ub; assay type: biochemical; settings: di-Ub as the substrate
Procedure: (§1) In Vitro Deubiquitination Assay
(§2) In vitro deubiquitination reactions were performed in a Tris buffer (50 mM TRIS, 1 mM TCEP, pH 7.7), containing 2 μM ^K48Ub2/4, then the specific DUB (50 mM Tris, 0.5 mM EDTA, 1 mM TCEP and 0.5 mg/ml ovalbumin, pH 7.5) was added. The reaction mixtures were incubated at 37° C. and at the indicated time points the reactions were stopped by taking aliquots and mixed them with 3× sample buffer and boiling. The same amounts were loaded on 14% SDS-PAGE, electro-blotted to nitrocellulose membrane and probed with an anti-Ub antibody. Bands were quantified with Image Quant LAS 4000 (GE Healthcare).
(§3) The inventors further chose to examine the effect of these cyclic peptides on two DUBs: OTUB1, a K48-linkage chain specific DUB, and USP2, which cleaves most Ub chains without specificity, using K48-linked di- and tetra-Ub chains as substrates.

K48-Ub2 [2] = biological target: T2, K48-Ub2 (Homo sapiens, UniProt P0CG47); assay: SPR binding of cyclic peptides to K48-linked di-ubiquitin
T2 construct: solid phase peptide synthesis of Ub monomers (modified as required); made in house; host or cells: total chemical synthesis (SPPS, isopeptide ligation, desulfurization)
Procedure: The interactions between cyclic peptides: U2i, U2ii, U4i, U4ix and Ub1, ^K48Ub2 and ^K48Ub4, were determined using BIACORE T100 instrument (GE healthcare) equipped with a biotin CAPture kit Series S chip. The buffer in all experiments contained 50 mM HEPES, pH 7.3, 150 mM NaCl, 0.05% Tween20, 2 mM DTT with 0.2% DMSO. Biotinylated Ub1, ^K48Ub2 and ^K48Ub4 were loaded to approximately equal molar amounts on the SPR chip, and various concentrations of cyclic peptides were flowed over at 100 μL/sec for 120 sec, before initiation of dissociation by flowing buffer over at 100 μL/sec for further 700 sec. Traces were fit to the simplest, two-state model for binding. Association was fit to a single exponential assuming pseudo-first order conditions, whereas the dissociation trace was fit to single exponential plus a drift term.
Each peptide was flowed over Ub1, ^K48Ub2 and ^K48Ub2 immobilized on SPR chips.

^K63Ub2 = biological target: T3, ^K63Ub2 (Homo sapiens, UniProt P0CG47, K63R); assay: NMR titration with K63-linked di-Ub; assay type: binding; settings: up to 2:1 peptide:Ub2
T3 construct: Recombinant Ub monomers carrying chain-terminating mutations; made in house
Procedure: (§4) All NMR studies were performed on Bruker Avance III 600 MHz spectrometer equipped with TCI cryoprobe. The sample temperature was set to 23° C. for Ub2ii binding studies or 25° C. for Ub4ix studies, unless indicated otherwise. The protein (monomeric Ub or Ub chains) samples were prepared in 20 mM sodium phosphate buffer (pH 6.8) containing 5-10% D20 and 0.02% (w/v) NaN3. The Ub2ii peptide was dissolved in deuterated DMSO (up to 20 mM concentration) and titrated in μL amounts into 50 μM ^15N-Ub^WT or K63-linked Ub2 (^15N-enriched in the distal domain) to two molar equivalents. Ub2ii was titrated into 100 μM solutions of proximally- or distally-^15N-enriched ^K48Ub2 to 1:1 or 1:1.3 molar ratio, respectively, as well as into 200 μM ^K48Ub2 with the ^13C/^15N-enriched proximal or distal Ub unit. Ub4ix titration into K48-linked Ub2, Ub3, and Ub4 was performed in a similar manner, with the starting Ub chain concentration of 200 μM; the chain/peptide molar ratio at the endpoint varied from 1:1 (Ub2) to 1:1.5 or 1:2 for Ub3 and Ub4. Several of these titrations were performed twice and at differing protein concentrations, to verify the reproducibility of the observed spectral changes. Separately, a similar amount of DMSO was added to ^15N-labeled Ub to verify that the presence of DMSO in the peptide-containing stock solution had negligible effect on Ub spectra. […]

monomeric Ub = biological target: T4, monomeric Ub (Homo sapiens, UniProt P0CG47); assay: NMR titration with monomeric Ub; assay type: binding; settings: compared with ^K48Ub2
T4 construct: made in house
Procedure: as §4

USP2 [3] = assay: In vitro deubiquitination assay, USP2 with K48-linked tetra-Ub; assay type: biochemical; settings: tetra-Ub chain, after removal of the distal Ub (tri-Ub)
Procedure: as §1, §2, §3

[4] = test system: K48-linked Ub elongation on Ring1B; assay: In vitro K48-linked Ub elongation on Ring1B (western blot); assay type: biochemical
26S proteasome = assay: In vitro proteasome degradation assay of HA-α-globin-K48-linked tetra-Ub; assay type: biochemical; settings: 5.3 μM peptide
K48-Ub2 [5] = biological target: T2, K48-Ub2; assay: Deep mutational scanning of J08_mClBz (relative enrichment, MiSeq); assay type: binding; settings: single mutation of J08_mClBz
Excerpt: FIG. 36 is a bar graph showing relative enrichment (log2 E) versus single mutations based on deep scanning (Step 2b in FIG. 34B). E=Positive fraction %/Input fraction % according MiSeq sequencing results. Bars of positive values and negative values indicate potentially favorable and unfavorable mutations, respectively.
Mutation of Leu6 seemed highly flexible which allowed its replacement by either nonpolar or polar residues. […] Based on this information, the inventors prepared nine peptides containing F9Y mutations.

[6] = SPR, target ^K48Ub4, read-out: KD
[7] = range stated in the description, 'as exemplified', read-out: tetrameric Ub binding affinity KD
[8] = SPR, target ^K48Ub2, read-out: KD
[9] = range stated in the description, 'as exemplified', read-out: dimeric Ub binding affinity KD

Row | Compound | koff (^K48Ub4; SPR, target ^K48Ub4) [s⁻¹] | kon (^K48Ub4; SPR, target ^K48Ub4) [M⁻¹ s⁻¹] | Kd (^K48Ub4; [6]) [nM] | Kd (^K48Ub4; [7]) [nM] | inhibition of USP2 (USP2 [1]) [%] | koff (K48-Ub2 [2]; SPR, target ^K48Ub2) [s⁻¹] | kon (K48-Ub2 [2]; SPR, target ^K48Ub2) [M⁻¹ s⁻¹] | Kd (K48-Ub2 [2]; [8]) [nM] | Kd (K48-Ub2 [2]; [9]) [nM] | inhibition of proteasomal degradation of α-globin-K48-linked tetra-Ub (26S proteasome) | other results
1 | CC(C)C[C@@H]1NC(=O)[C@H](CC(N)=O)NC(=O)[C@H](CC(=O)O)NC(=O)[C@H](Cc2ccccc2)NC(=O)[C@H](Cc2c[nH]c3ccccc23)NC(=O)CNC(=O)[C@@H](Cc2c[nH]c3ccccc23)NC(=O)CSC[C@@H](C(=O)NCC(N)=O)NC(=O)[C@H](Cc2c[nH]cn2)NC(=O)[C@H]([C@@H](C)O)NC(=O)[C@H](C(C)C)NC(=O)[C@H](Cc2ccc(O)cc2)NC(=O)[C@H](Cc2c[nH]c3ccccc23)NC(=O)[C@H](Cc2ccc(O)cc2)NC1=O [Ub2i] | 0.011 | 779000 | 14 | 15 to 25 | ~40 | 0.024 | 593000 | 40 ± 12 | 20 to 40 |  | 
2 | CC(C)C[C@@H]1NC(=O)[C@H](Cc2ccc(O)cc2)NC(=O)[C@H](Cc2ccc(O)cc2)NC(=O)[C@H](Cc2ccc(O)cc2)NC(=O)[C@H](CCC(=O)O)NC(=O)[C@H](CCCNC(=N)N)NC(=O)[C@H](CC(=O)O)NC(=O)[C@H](Cc2ccc(O)cc2)NC(=O)[C@H](Cc2c[nH]c3ccccc23)NC(=O)[C@@H](Cc2c[nH]c3ccccc23)NC(=O)CSC[C@@H](C(=O)NCC(N)=O)NC(=O)CNC(=O)[C@H](Cc2ccc(O)cc2)NC(=O)CNC1=O [Ub2ii] | 0.012 | 877000 | 14 | 10 to 20 | ~40 | 0.016 | 489000 | 33 ± 8 | 30 to 50 |  | binding to K63-linked di-Ub (NMR) (^K63Ub2): non-specific and much weaker; binding to monomeric Ub (NMR) (monomeric Ub): much weaker binding
3 | CC(C)C[C@@H]1NC(=O)[C@H](CC(=O)O)NC(=O)[C@H](CC(=O)O)NC(=O)[C@H](Cc2ccccc2)NC(=O)[C@H](Cc2c[nH]c3ccccc23)NC(=O)CNC(=O)[C@@H](Cc2c[nH]c3ccccc23)NC(=O)CSC[C@@H](C(=O)NCC(N)=O)NC(=O)[C@H](Cc2ccc(O)cc2)NC(=O)[C@H](C)NC(=O)[C@H](C(C)C)NC(=O)[C@H](Cc2ccccc2)NC(=O)[C@H](CC(C)C)NC(=O)[C@H](Cc2ccc(O)cc2)NC1=O [Ub4i] | 0.011 | 407000 | 26 | 20 to 35 | ~40 | 0.024 | 262000 | 91 | 85 to 115 |  | Kd (K48-Ub2 [2]; text and figure legend, K48-Ub2, read-out: KD / binding affinity): 90 nM; inhibition of USP2 (USP2 [3]): strong inhibition
4 | *FQLWOHAIALCG [Ub4_e] |  |  |  |  |  |  |  |  |  | clear inhibition | inhibition of K48-linked Ub elongation on Ring1B [4]: inhibit
5 | *FQYWOYATGVCG [Ub4_a] |  |  |  |  |  |  |  |  |  | clear inhibition | inhibition of K48-linked Ub elongation on Ring1B [4]: inhibit
6 | *GWFDDLYLYVAYC [J08_mClBz_F9Y] |  |  |  |  |  |  |  |  |  |  | relative enrichment ratio (K48-Ub2 [5]): > 5; fold improvement of binding affinity (K48-Ub2 [2]; from J08_mClBz): 17 fold
7 | M*GWFDDLYLFVAY-CG [J08_mClBz] |  |  |  |  |  |  |  |  |  |  | fold improvement of binding affinity (K48-Ub2 [2]; compared with U4i (chloroacetyl-cyclized peptide of same sequence)): 9 fold
8 | linear Ub4ix: uncyclized/linear form of Ub4ix (WLYLDDSGDWWICG; not fully specified (residue 1)) |  |  |  |  |  |  |  |  |  | no inhibition | 
